# Tests used:
# [1] = test system: murine Hb9-GFP+ motor neurons in co-culture with ALS patient iAstrocytes; experiment: Human iAstrocyte - murine Hb9-GFP+ motor neuron co-culture; type: cell-based, human iAstrocytes
# Description: iNPCs (induced Neuronal Progenitor Cells) were derived from ALS patient fibroblasts as described previously (Meyer et al. 20148). iNPCs were differentiated into iAstrocytes by culturing in iAsrocyte media for at least 5 days. Murine motor neurons expressing the green fluorescent protein (GFP) under the Hb9 motor neuron-specific promoter (called from now on Hb9-GFP+) were differentiated from murine embryonic stem cells via embryoid bodies (EBs), as previously described (Haidet-Phillips et al. 20119, Wichterle et al. 200210).
# iNPCs and mESC were split into iAstrocyte media and mEB media respectively on the same day, such that iAstrocytes and motor neurons will have both differentiated for 7 days when seeded together in co-culture.
# Changed media on iAstrocytes, and split using accutase if 90-100% confluent 3 days after seeding from iNPCs. iAstrocytes were left a further 2 days in iAstrocyte media until seeded onto 384-well plates.
# Diluted fibronection 1:400 in PBS, and 5 μL added per well. The plate was incubated with fibronectin at room temp for at least 5 mins.
# The media was removed from iAstrocytes, and washed in PBS. 1 mL accutase per 10 cm plate was added, and incubated at 37° C. for 4 mins. The plate was tapped to dislodge any remaining iAstrocytes. The iAstrocytes were resuspended in iAstro media, and centrifuged at 200×g for 4 mins. The supernatant was removed, the falcon was flicked to vortex the cells, and resuspended the cells in an appropriate amount of iAstrocyte media. Counted cells using the haemocytometer, and diluted cells to an appropriate dilution for seeding. Seeded 1-2,000 iAstrocytes in 35 μL media on fibronectin-coated 384-well plates. Centrifuged 384-well plates at 1,760×rpm for 60 s using a PK120 (ALC) centrifuged (in neurogenetics) to collect media and cells to base of wells. Plates were left for 24 h for iAstrocytes to adhere to plate.
# Drugs were delivered in 100% drug-grade DMSO to iAstrocyte media using an Echo550 liquid handler (Labcyte). 384-well plates were centrifuged at 1,760×rpm for 60 s using a PK120 (ALC) centrifuge.
# 2 plates of EBs were collected in a 50 mL tube and centrifuged for 4 mins at 200×g. The supernatant was removed from EBs after centrifugation, and washed in 10 mL PBS then centrifuged again for 4 mins at 200×g, and PBS wash removed.
# For each 50 mL tube, 2.75 mL EB dissociation buffer was added and then 250 μL 200 U/mL (10×) Papain. The solution was gently pipetted up and down 10 times, using a P1000 pipette, against the side of the falcon (EB pellet was not pipetted directly). 50 mL tube was put in 37° C. water bath and incubated for 5 mins. Tube removed every 3 mins and gently shaken. After 5 mins, additional 2 mL of EB dissociation and 100 μL 200 U/mL (10×) Papain were added, which was then pipette again 5 times with P1000 pipette, and returned to the water bath for another 5 mins. It was returned to water bath as before, and incubated for no longer than 15-20 mins.
# Centrifuged for 5 mins at 300×g. Each 50 mL tube, 2.7 mL EB dissociation was prepared, to which 300 μL FBS and 150 μL 0.5 mg/mL DNaseI was added. The supernatant was removed from dissociated EBs and 3 mL of the FBS/DNaseI mix was added, pipetted up and down with P1000 pipette about 5 times. 5 mL FBS was added very slowly to the bottom of the falcon containing the dissociated EBs. The supernatant was removed and the cells very gently resuspended in about 3 mL MN media (more used if the pellet is large) and filtered through a 40 μm filter. 1 mL extra MN media was added to wash the filter.
# 2,500 murine Hb9-GFP+ motor neurons were seeded per well in 10 μL motor neuron media on top of the pre-treated iAstrocytes. 384-well plates were centrifuged at 1,760×rpm for 60 s using a PK120 (ALC) centrifuge.
# Day8 15 μL motor neuron media were added per well. Hb9-GFP+ motor neurons were imaged using an INCELL analyser 2000 (GE Healthcare)—day 1 of co-culture. […]
# [2] = test system: α-synuclein in ReNcell VM Neuronal cells; experiment: Modulation of α-synuclein aggregation; type: cell-based
# Experimental: Compounds were assessed for their ability to modulate α-synuclein aggregation. ReNcell VM Neuronal cells were transduced with α-synuclein encoded adenovirus, and compounds were added after 24 hours. After 72 hours, compound was refreshed. After an additional 72 h, cells were fixated (a total of 6 days of compound treatment). Two distinct α-synuclein antibodies were added (Syn205 and MJF-14), imaging was performed on IN Cell 2200 at 10× magnification. Immunoreactivity is quantified by a high content algorithm. Compound data is normalized to a negative control (0.1% DMSO) and a positive control (10 μM KU0063794; CAS 938440-64-3).
# hERG ion channel = hERG ion channel (Homo sapiens, UniProt Q12809); experiment: hERG QPatch automated patch clamp; type: cell-based; conditions: CHO cells stably expressing hERG, QPatch 48, tail current
# Experimental: hERG IC50 data was supplied by Metrion using their standard assay protocol briefly detailed below.
# hERG ion channel screening was assayed in CHO cells stably expressing the human ether-á-go-go related gene, using the QPatch 48 automated, chip-based planar patch clamp device. A Gigaohm seal between the cell membrane and treated silicon surface was obtained and specific external and internal buffered solutions applied to cells prior to recording. Following baseline vehicle treatment, compounds were applied in increasing concentrations (8 pt CRC), effects on hERG tail current amplitudes were measured in two-minute recordings.
# [3] = test system: HUVEC (human umbilical venous endothelial cells); experiment: HUVEC Tube Formation assay; type: cell-based; conditions: 18 h incubation, read-out: Tube formation GI50
# Experimental: HUVEC (human umbilical venous endothelial cells, 1.5×10^4/well, ATCC CRL-1730) are placed in an earlier prepared 96-well plate. Test substance and/or vehicle is then added to each well in a final concentration of 0.4% DMSO in growth medium under an atmosphere of 5% CO2 at 37° C. After an 18 h incubation period, morphology of the endothelial cell tubes, which resemble a capillary-like network, are evaluated by a confocal high-content imaging system. Disruption (anti-angiogenesis) of total tube length is measured from each photograph and determined relative to the vehicle control group. […] Compounds are screened at 30, 3, 0.3, 0.03 and 0.003 μM (or μg/mL) in triplicate.
# Chain of hERG ion channel (Q12809 whole entry): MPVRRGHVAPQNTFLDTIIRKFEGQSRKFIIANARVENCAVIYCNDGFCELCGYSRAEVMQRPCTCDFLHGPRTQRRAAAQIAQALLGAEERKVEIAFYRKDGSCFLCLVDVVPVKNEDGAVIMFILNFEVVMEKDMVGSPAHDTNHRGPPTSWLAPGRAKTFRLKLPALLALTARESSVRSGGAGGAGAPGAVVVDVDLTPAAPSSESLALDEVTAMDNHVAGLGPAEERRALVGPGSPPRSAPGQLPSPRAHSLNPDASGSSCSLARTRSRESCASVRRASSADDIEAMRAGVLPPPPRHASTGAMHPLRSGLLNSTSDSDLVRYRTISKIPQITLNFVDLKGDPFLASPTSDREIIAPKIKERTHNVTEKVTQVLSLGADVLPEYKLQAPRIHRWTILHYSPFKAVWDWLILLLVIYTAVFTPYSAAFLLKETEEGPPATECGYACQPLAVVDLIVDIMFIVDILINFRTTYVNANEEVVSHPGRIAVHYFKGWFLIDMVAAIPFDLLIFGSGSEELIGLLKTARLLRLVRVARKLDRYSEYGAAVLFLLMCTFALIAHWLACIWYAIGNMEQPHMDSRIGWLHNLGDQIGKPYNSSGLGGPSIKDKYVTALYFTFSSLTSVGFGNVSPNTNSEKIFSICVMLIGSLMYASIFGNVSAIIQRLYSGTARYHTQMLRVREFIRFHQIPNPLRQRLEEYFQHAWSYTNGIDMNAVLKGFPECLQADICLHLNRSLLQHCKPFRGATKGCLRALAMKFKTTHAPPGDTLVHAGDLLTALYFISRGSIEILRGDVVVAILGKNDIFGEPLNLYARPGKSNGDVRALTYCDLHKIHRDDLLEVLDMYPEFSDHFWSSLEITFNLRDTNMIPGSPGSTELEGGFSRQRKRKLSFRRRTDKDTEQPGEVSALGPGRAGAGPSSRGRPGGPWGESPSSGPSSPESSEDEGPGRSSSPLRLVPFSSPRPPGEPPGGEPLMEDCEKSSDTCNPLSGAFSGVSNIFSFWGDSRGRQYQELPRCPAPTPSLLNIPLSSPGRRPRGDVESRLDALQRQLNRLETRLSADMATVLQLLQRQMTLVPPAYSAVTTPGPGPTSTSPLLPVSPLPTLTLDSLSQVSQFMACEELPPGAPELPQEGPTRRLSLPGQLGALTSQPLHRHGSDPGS
smiles,measurement,setting,value
"Cc1ccc(C(=O)Nc2cn(C(C)C)cn2)cc1C#Cc1cccnc1 [Example 25, N-(1-isopropylimidazol-4-yl)-4-methyl-3-[2-(3-pyridyl)ethynyl]benzamide]",rescue of motor neuron survival in co-culture with patient-derived iAstrocytes (FIG. 3),"[1]; 72 hours co-culture, dose dependant, maximum responses close to positive control (1 μM Nilotinib)",rescue motor neuron survival
same,efficacy at very high concentrations (motor neuron survival),[1]; potentially due to compound toxicity,reduction in efficacy at very high concentrations
same,amount of α-synuclein present in ReNcell VM neuronal cells (FIG. 4),"[2]; 6 days of compound treatment, antibodies Syn205 and MJF-14",dose dependant reduction
same,IC50,"[2]; ReNcell VM, 100% = reduction equal to 10 μM KU0063794, 0% = 0.1% DMSO",1 to 10 µM
same,IC50,hERG ion channel,> 10 µM
same,GI50,[3],> 10 µM

# Source: patent US20230014226A1, “NEW COMPOUNDS AND METHODS” (BenevolentAI Bio Limited, priority 2019, published 2023)
